Test results taken from patent US10918625B2, “Use of sesquiterpene derivative” (KOOKMIN UNIVERSITY INDUSTRY ACADEMY COOPERATION FOUNDATION, priority 2016, dated 2021).

Columns and labels:
[1] = tested on: Wnt/β-catenin pathway; assay: Wnt/β-catenin pathway inhibitory activity: cytoplasmic β-catenin by western blot in Wnt3a-CM treated ARPE-19 cells; format: cell-based; details: ARPE-19 human retinal epithelial cells, Wnt3a-CM, compound 3 or 6 μM, 24 hours
Description: ARPE-19 cells (human retinal epithelial cells) and Wnt3a-secreting L cells were obtained from the ATCC (American Type Culture Collection, USA) and were cultured in DMEM (Dulbecco's modified Eagle's medium) supplemented with 10% FBS, 120 μg/mL penicillin and 200 μg/mL streptomycin. Wnt3a-CM (Wnt3a-conditioned medium) was prepared by culturing Wnt3a-secreting L cells in DMEM supplemented with 10% [v/v] FBS (fetal bovine serum) for 4 days and recovering the DMEM medium and sterilizing by filtering through a 0.22-μm filter. Then, after adding fresh DMEM (supplemented with 10% [v/v] FBS) to the cells and culturing for 3 days, Wnt3a-CM was recovered.
(§1) After treating ARPE-19 cells with the Wnt3a-CM, the compound of Preparation Example 33 or the compound of Preparation Example 34 (3 or 6 μM) for 24 hours and extracting cytoplasmic proteins from the cells, the amount of β-catenin regulating the CRT (β-catenin response transcription) of the Wnt/β-catenin pathway in the cells was investigated by western blot using a β-catenin antibody (BD Transduction Laboratories, USA) and the ECL system (Santa Cruz Biotechnology).

[2] = tested on: Wnt/β-catenin pathway; assay: Wnt/β-catenin pathway inhibitory activity: cytoplasmic β-catenin by western blot in Wnt3a-CM treated HEK293 cells; format: cell-based, human; details: Wnt3a-CM, 15 hours
Description: HEK293 cells (human embryonic kidney cells) and Wnt3a-secreting L cells were obtained from the ATCC (American Type Culture Collection, USA) and were cultured in DMEM (Dulbecco's modified Eagle's medium) supplemented with 10% FBS (fetal bovine serum), 120 μg/mL penicillin and 200 μg/mL streptomycin.
Wnt3a-CM (Wnt3a-conditioned medium) was prepared by culturing Wnt3a-secreting L cells in DMEM supplemented with 10% [v/v] FBS (fetal bovine serum) for 4 days and recovering the DMEM medium and sterilizing by filtering through a 0.22-μm filter. Then, after adding a fresh DMEM (supplemented with 10% [v/v] FBS) medium to the cells and culturing for 3 days, the medium was recovered by the same method and then combined with the previously prepared Wnt3a-CM.
as §1, with “HEK293” for “ARPE-19”, “30” for “33”, “31 (10, 20” for “34 (3”, “40” for “6”, “15” for “24”
as §1, with “The Wnt/β-catenin pathway inhibitory activity of the Preparation Example 32 compound was evaluated in the same manner as in Example <1-1>. Briefly, after” for “After”, “HEK293” for “ARPE-19”, “Wnt3a-CM” for “Wnt3a-CM, the compound of Preparation Example 33”, “32 (10” for “34 (3”, “20” for “6”, “15” for “24”

[3] = tested on: macular edema-induced mouse model; assay: Inhibition of vascular leakage in the retina, intraperitoneal administration, laser-induced macular edema mouse model (OCT); format: in vivo, C57BL/6 mouse; details: 1 mg/kg intraperitoneal every day for 7 days, OCT on day 6, vs vehicle
Description: After inducing macular edema in a C57BL/6 mouse and intraperitoneally administering the compound of Preparation Example 33, vascular leakage in the retina was investigated.
Briefly, after anesthetizing an 8-to-12-week-old C57BL/6 mouse with Zoletil (40 mg/kg) and xylazine (5 mg/kg), the pupil was dilated with 1% tropicamide. Hydroxypropylmethyl cellulose was dropped onto the eye and a microscope cover glass was used as a contact lens. Then, 3-5 laser burns were made in the space between the retinal blood vessels around the optic disc (Zeiss 1149-630, laser power 200 mW, duration 0.05 s, spot size 50 μm).
After the laser irradiation, 10 mL/kg of distilled water as a vehicle was intraperitoneally administered to a control group (FIG. 5, A) and 1 mg/kg of the compound of Preparation Example 33 (dissolved distilled water) was intraperitoneally administered to a test group (FIG. 5, B) every day for 7 days. On day 6, 10% sodium fluorescein was intraperitoneally administered and optical coherence tomography was conducted.

[4] = tested on: C57BL/6J mice; assay: Tissue toxicity, long-term (8 weeks) administration: blood GPT, BUN, liver and kidney sections; format: in vivo, C57BL/6J mouse; details: different doses for 8 weeks
Description: A long-term toxicity test was conducted by administering the compound of Preparation Example 33 at different doses to C57BL/6J mice (10 mice per group) for 8 weeks. In order to investigate the effect on different organs (tissues) of the animals, blood was taken from the animals of the test group to which the compound of Preparation Example 33 was administered and the control group to which only PEG 400:Tween 80:ethanol (8:1:1, v:v:v) was administered 8 weeks later and the level of GPT (glutamate-pyruvate transferase) and BUN (blood urea nitrogen) in the blood was measured using Select E (Vital Scientific NV, Netherlands).

[5] = In vivo PK after oral administration: concentration in blood plasma and eye (LC-MS/MS); parameters: species or system ICR mouse; details: 10 mg/kg oral gavage, plasma and eye at 0.5 hour and 2 hours
Description: Male ICR mice (8 weeks, 30-35 g) were purchased from Samtako Co. (Osan, Korea). The test animals were acclimatized for a week under the following conditions: temperature 23±2° C., relative humidity 55±10%, illumination intensity 150-300 lux, ventilation frequency 15-20 times/h, illumination cycle 12 h (07:00-19:00). All the animal experiments were approved by the Animal Care and Use Committee of Kyungpook National University (Study No. 2016-0043).
The mice were fasted for 12 hours before drug administration. Feed and water were supplied ad libitum. The compound of Preparation Example 33 was dissolved in DW:PEG 400 (=60:40 (v/v)) and administered by oral gavage at a dose of 10 mg/kg.
0.5 hour and 2 hours after the oral administration, blood samples were taken from the abdominal artery. […] of a plasma sample obtained after centrifuging the blood sample at 13,000 rpm for 5 minutes was stored at −80° C. until use for analysis. […]
In order to investigate the distribution of the compound of the present disclosure in the target tissue, the compound was orally administered at a dose of 10 mg/kg and the concentration of the compound in the blood plasma and eye was measured. The sampling times were determined as 0.5 hour and 2 hours based on the peak plasma concentration and the distribution phase. […]

[6] = tested on: macular edema-induced mouse model; assay: Inhibition of vascular leakage in the eye, intravitreal administration, laser-induced macular edema mouse model (FA and OCT); format: in vivo, C57BL/6 mouse; details: 100 ng/0.5 μL in DMSO intravitreal 24 hours after laser, read one week later, vs DMSO control group
Description: Macular edema was induced in a 10-week-old C57BL/6 mouse by irradiating a laser. After anesthetizing the mouse with ketamine (70 mg/kg) and xylazine (30 mg/kg), the pupil was dilated with 1% tropicamide. Hydroxypropylmethyl cellulose was dropped onto the eye and a microscope cover glass was used as a contact lens. Then, five laser burns were made in the space between the blood vessels around the optic disc (Zeiss 1149-630, laser power 180 mW, duration 0.1 s, spot size 50 μm). In this state, the blood vessel size and permeability were investigated by fluorescein angiography (FA) and optical coherence tomography (OCT). 24 hours after the laser irradiation, 0.5 μL of DMSO (dimethyl sulfoxide) was injected to a control group and 100 ng/0.5 μL of the Preparation Example 33 compound dissolved in DMSO was injected to a test group, into the vitreous cavity of the mouse. One week later, fluorescein angiography and optical coherence tomography were conducted again.

C=C1CCC[C@@H]2[C@@](C)(CC3=C(O)C(=O)C=C(OCC)C3=O)[C@H](C)CC[C@@]12C [Preparation Example 34, 3-[[(1S,2R,4aR,8aR)-1,2,4a-trimethyl-5-methylidene-3,4,6,7,8,8a-hexahydro-2H-naphthalen-1-yl]methyl]-5-ethoxy-2-hydroxycyclohexa-2,5-diene-1,4-dione]
level of β-catenin in the cytoplasm (western blot) [1]: decreased level of β-catenin

C=C1CCCC2C1(C)CCC(C)C2(C)CC1=C(O)C(=O)C=C(NCCc2ccccc2)C1=O (stereo not drawn) [Preparation Example 32]
level of β-catenin in the cytoplasm (western blot) ([2]; compound 10 or 20 μM): decreased level of β-catenin

C=C1CCCC2C1(C)CCC(C)C2(C)Cc1c(O)c(OC)cc2nc(C)oc12 [Preparation Example 31, 18-methoxy-22-methyl-16-[{(5S,8S,9R,10S)-5,8,9-trimethyl-4-methylenedecahydronaphthalen-9-yl}methyl]benzo[d]-oxazol-17-ol]
level of β-catenin in the cytoplasm (western blot) ([2]; compound 10, 20 or 40 μM): decreased level of β-catenin

C=C1CCC[C@H]2[C@](C)(CC3=C(O)C(=O)C=C(OC)C3=O)[C@@H](C)CC[C@]12C [Preparation Example 33, 3-[[(1R,2S,4aS,8aS)-1,2,4a-trimethyl-5-methylidene-3,4,6,7,8,8a-hexahydro-2H-naphthalen-1-yl]methyl]-2-hydroxy-5-methoxycyclohexa-2,5-diene-1,4-dione]
vascular leakage (optical coherence tomography) [3]: inhibited vascular leakage | liver and kidney tissue sections under optical microscope [4]: no special abnormality | BUN (blood urea nitrogen) in the blood, control group vs test group ([4]; related with kidney toxicity): no significant difference | GPT (glutamate-pyruvate transferase) in the blood, control group vs test group ([4]; related with liver toxicity): no significant difference | distribution in the eye after oral administration [5]: highly targeted in the eye | permeability for the target tissue (eye) [5]: high permeability | vascular leakage (fluorescein angiography and optical coherence tomography) [6]: distinctly decreased vascular leakage | level of β-catenin in the cytoplasm (western blot) [1]: decreased level of β-catenin

C=C1CCCC2C1(C)CCC(C)C2(C)CC1=C2OC(C)(C)N=C2C=C(OC)C1=O [Preparation Example 30, 18-methoxy-22,22-dimethyl-16-[{(5R,8S,9R,10S)-5,8,9-trimethyl-4-methylenedecahydronaphthalen-9-yl}methyl]benzo[d]-oxazol-17(2H)-one]
level of β-catenin in the cytoplasm (western blot) ([2]; compound 10, 20 or 40 μM): decreased level of β-catenin
